In patent publication US20100190733A1, “Methods of Treating Muscular Dystrophies” (Primus Pharmaceuticals, Inc., priority 2009, published 2010):

Legend:
[1] = test system: mdx mice; details: previous studies (Ref. 38 and 39); cited from earlier work
[2] = test system: muscle regeneration after traumatic injury; details: systemic administration (Ref. 21); cited from earlier work
[3] = test system: mdx mice; details: previous studies (Ref. 36-37); cited from earlier work
[4] = test system: Extensor digitorum longus muscles (EDL) of mdx mice; experiment: Electrophysiological studies of isolated EDL muscle, Example 2; type: in vivo; details: genistein 2 mg/kg/ip daily for 5 weeks vs vehicle
Method: (§1) Mdx animals were purchased from Charles River Italy (Calco, Milan, Italy). Animals were 4 weeks old on arrival and were acclimatized for 5 days before the study. At the beginning of the experiment the mice, which were at that point 5 weeks old, weighted about 20-22 grams. The mice were treated daily for 5 weeks with either the phytoestrogen genistein (Sigma, Mo., USA) at a dose of 2 mg/kg/ip or its vehicle (1:3 DMSO: 0.9% NaCl solution).
Extensor digitorum longus muscles (EDL) were vertically mounted in a temperature controlled (30°) chamber containing Krebs Ringer bicarbonate buffer (Sigma k4002) and continuously gassed with a mixture of 95% O2 and 5% CO2. One end of the muscle was linked to a fixed clamp while the other end was connected to the lever-arm of an Aurora Scientific Instruments 300B actuator/transducer system using a nylon wire. […] For each experiment, the initial muscle length was adjusted to the length (L0) which produced the highest twitch force. The optimal fiber length (Lf) was determined by multiplying the value of L0 for the fiber length by the muscle length ratio (0.44 for the EDL and 0.71 for soleus). The muscle cross-sectional area (CSA) was determined for the EDL and soleus by dividing the muscle mass (m) by the product of the Lf and the density of mammalian skeletal muscle (1.06 mg/mm^3).
In order to measure force generation, the muscle was initially stimulated with two 0.5 ms single pulses (with a rest time of 150 s) to measure twitch force, twitch force/cross sectional area (CSA), and contraction time (the time that the isolated muscle needs to reach the peak force after delivery of a single electrical pulse).
In order to measure high-stress eccentric contractions, the muscle was stimulated with five tetanic stimulations (train of 0.1 ms pulses delivered at 180 Hz, for 0.6 s) to evaluate the maximum isometric force (and maximum force/cross sectional area (CSA)) and the decline in maximal isometric force. The latter was measured by dividing the force value at the last stimulation (F5) by the force value at the first stimulation (F1), and used as a index of myofiber injury caused by high-stress contractions.

[5] = test system: mdx mice; experiment: Forelimb strength and fatigue by grip meter, Example 2; type: in vivo; details: genistein 2 mg/kg/ip daily for 5 weeks vs vehicle
Method: as §1
(§2) Mice were weighed and examined for forelimb strength at baseline and at the end of the experiment. Strength testing consisted of five separate measurements using a grip meter attached to a force transducer that measures the peak force generated (Stoelting Co., Wooddale Ill., USA). Specifically, the mouse grabbed the trapeze bar as it is pulled backward and the peak pull force in grams is recorded on a display. The three highest measurements for each animal were averaged to give the strength score.
The degree of fatigue was calculated by comparing the first two pulls to the last two pulls. The decrease between pulls 1+2 and pulls 4+5 provided the measure of fatigue.

[6] = test system: mdx mice; experiment: Histological studies of biceps muscle, Example 2; type: in vivo; details: genistein 2 mg/kg/ip daily for 5 weeks vs vehicle
Method: as §1
Transverse cryostat sections 10 μm thick were obtained from the midpoint of the biceps and TA muscle body. The whole muscle cross sections (corresponding to a mean area of 2.10 mm^2 in biceps and 2.25 mm^2 in TA) were stained with hematoxylin-eosin and were examined by a blinded observer using the AxioVision 2.05 image analysis system equipped with an Axiocam camera scanner (Zeiss, Munchen, Germany). The following four areas with patchy distribution were recognized: 1) normal fibers identified by the presence of peripheral nuclei; 2) necrotic fibers identified by pale cytoplasm and phagocytosis; 3) regenerating fibers identified by small size, central nuclei with/without basophilic cytoplasm; 4) centrally nucleated fibers identified by normal size but with central nuclei. The area occupied by normal fibers, necrotic fibers, regenerating fibers, or centrally nucleated fibers was expressed as a percentage of the area of the whole muscle cross section.

[7] = test system: mdx mice; experiment: Immunohistochemistry of biceps (myogenin, dMHC), Example 2; type: in vivo; details: genistein 2 mg/kg/ip daily for 5 weeks vs vehicle
[8] = Body weight, Example 2; type: in vivo; details: mdx mice, genistein 2 mg/kg/ip daily for 5 weeks vs vehicle
Method: as §1, §2

[9] = test system: mdx mice; experiment: Serum creatine kinase (CK) evaluation, Example 2; type: in vivo; details: genistein 2 mg/kg/ip daily for 5 weeks vs vehicle
Method: as §1
Blood samples were centrifuged at 6000 g and the serum was stored at −80° C. until the day of analysis. Serum CK was evaluated at 37° C. using a commercially available kit (Randox Laboratories LTD, Antrim, UK). The results are expressed as U/L.

[10] = test system: NF-κB; experiment: NF-κB activation (EMSA) in skeletal muscle, Example 2; type: in vivo; details: mdx mice skeletal muscle, genistein 2 mg/kg/ip daily for 5 weeks vs vehicle
Method: as §1
Isolation of nuclear proteins in approximately 50 mg of frozen skeletal muscle tissue was performed according to recently detailed method (See ref 15 below). Twenty micrograms of nuclear extract were incubated for 30 min at room temperature with 50 fmol of biotin-end-labeled 45-mer double-strand NF-κB oligonucleotide from the HIV long terminal repeat, 5-[…] GGCGTGGG-3 containing 2(underlined) NF-κB binding sites. Both complimentary oligos were end-labeled separately and then annealed prior to use. […] The results were expressed as relative integrated intensity compared with normal controls, considering exposure time, background levels and known protein concentration of an Epstein Barr virus nuclear antigen-1 extract, which was used as EMSA control.

[11] = test system: WT and mdx mice; experiment: Serum creatine kinase (CK) evaluation, Example 1; type: in vivo; details: after 5 weeks daily i.p. treatment, mean±SD
Method: (§3) Five-week old mdx and WT mice were treated for 5 weeks with daily 100 μl intraperitoneal injections with either flavocoxid (a mixture of catechin and baicalin) (n=8, 5 mg/kg), methylprednisolone (n=8, 0.75 mg/Kg) or vehicle (n=8, 33% (v/v) dimethylsulphoxide (DMSO) in 0.9% NaCl). At the end of the experiments, animals were anaesthetized with intraperitoneal administration of sodium penthobarbital (80 mg/kg). Blood was then collected by intracardiac puncture and used to analyze creatine kinase (CK) levels. The biceps, quadriceps and extensor digitorum longus (EDL) muscles were removed bilaterally and immediately frozen in liquid nitrogen-cooled isopentane and stored at −80° C. for histological and biochemical evaluations.
Blood samples were centrifuged at 6,000 RPM and the serum stored at −80° C. until the day of analysis. Serum CK was evaluated at 37° C. using a commercially available kit (Randox Laboratories LTD, Crumlin, Co. Antrim U.K). The results were expressed as U/L.

[12] = test system: WT and mdx mice; experiment: Forelimb strength and fatigue by grip meter, Example 1; type: in vivo; details: flavocoxid 5 mg/kg, methylprednisolone 0.75 mg/Kg
Method: as §3
(§4) Mice were weighed and examined for forelimb strength at baseline and after 5 weeks of treatment. Strength testing consisted of five separate measurements using a grip meter attached to a force transducer that measures peak force generated (Stoelting Co, Wooddale Ill., USA). Briefly, the mouse grabed the trapeze bar as it was pulled backward and the peak pull force in grams was recorded on a display upon release by the animal. The three highest measurements for each animal were averaged to give the strength score. The degree of fatigue was calculated by comparing the first two pulls to the last two pulls. The decrement between pulls 1+2 and pulls 4+5 gave the measure of fatigue.

[13] = Body weight, Example 1; type: in vivo; details: WT mice, after 5 weeks daily i.p. treatment, compared to WT mice treated with vehicle
Method: as §3
as §4, with “The decrement between pulls 1+2 and pulls 4+5 gave the measure of fatigue.” left out

[14] = end of 5 weeks daily i.p. treatment

O=C(O[C@@H]1Cc2c(O)cc(O)cc2O[C@@H]1c1cc(O)c(O)c(O)c1)c1cc(O)c(O)c(O)c1 [epigallocatechin gallate]
effect on mdx mice [1]: beneficial effect

COc1cc(/C=C/C(=O)CC(=O)/C=C/c2ccc(O)c(OC)c2)ccc1O [curcumin]
muscle regeneration after traumatic injury [2]: stimulates muscle regeneration

S=C(S)N1CCCC1 [pyrrolidine dithiocarbamate]
effects on functional, biochemical and morphological parameters of mdx mice muscle fibers [3]: beneficial effects

O=c1c(-c2ccc(O)cc2)coc2cc(O)cc(O)c12 [genistein, 5,7-Dihydroxy-3-(4-hydroxyphenyl)chromen-4-one]
contraction time [4]: not found to modify | decline of maximal isometric force (F5/F1 after five tetanic stimulations) [4]: reduced | maximum force/CSA [4]: not found to modify | twice force/CSA [4]: not found to modify | twitch force [4]: not found to modify | forelimb strength [5]: significantly augmented | level of fatigue [5]: slightly lower | strength normalized to weight [5]: higher | necrosis in the biceps [6]: decreased | percentage of centrally nucleated fibers in the biceps [6]: not found to modify | percentage of normal muscular area in the biceps [6]: not found to modify | percentage of regenerating fibers in the biceps [6]: increased | myogenin expression in the nuclei of muscles [7]: significantly increased | number of dMHC positive fibers [7]: not found to modify | number of myogenin positive satellite cells (SC) [7]: not found to modify | body weight [8]: not significantly different | CK levels [9]: statistically significant reduction | NF-κB activation [10]: significantly decreased

CC(=O)SCCC1Cc2c(C)c(OC(=O)CCC(=O)O)c(C)c(C)c2O1 (racemic) [IRFI-042, (±)-5-emisuccinoyl-2-[2-(acetylthio)ethyl]-2,3-dihydro-4,6,7-trimethylbenzofuran]
effects on functional, biochemical and morphological parameters of mdx mice muscle fibers [3]: beneficial effects

C[C@H]1C[C@@H]2[C@H]([C@@H](O)C[C@@]3(C)[C@H]2CC[C@]3(O)C(=O)CO)[C@@]2(C)C=CC(=O)C=C12 [methylprednisolone]
serum CK levels ([11]; WT mice): 365±28 U/L | serum CK levels ([11]; mdx mice): 1737±103 U/L | fatigue levels compared to vehicle-treated mdx ([12]; after 5 weeks daily i.p. treatment): −13% | forelimb strength compared to vehicle-treated mdx mice [12, 14]: +30% | strength normalized to weight compared to vehicle-treated mdx mice [12, 14]: +27% | body weight [13]: increase in body weight
